From US8802700B2 (Vertex Pharmaceuticals Incorporated, priority 2010, dated 2014)

Biological target: T1, ΔF508-CFTR (Homo sapiens, UniProt P13569, DEL508-508)
T1 construct: expressed in transfected cells
Assay: Membrane potential optical assay (FRET voltage-sensor dyes, VIPR), identification of potentiator compounds
Assay type: cell-based
Settings: Table 3, assay not given; for Emax: read-out: % Activity (% Efficacy, relative efficacy)
Source text: The optical membrane potential assay utilized voltage-sensitive FRET sensors described by Gonzalez and Tsien (See Gonzalez, J. E. and R. Y. Tsien (1995) “Voltage sensing by fluorescence resonance energy transfer in single cells” Biophys J 69(4): 1272-80, and Gonzalez, J. E. and R. Y. Tsien (1997) “Improved indicators of cell membrane potential that use fluorescence resonance energy transfer” Chem Biol 4(4): 269-77) in combination with instrumentation for measuring fluorescence changes such as the Voltage/Ion Probe Reader (VIPR) (See […]. Oades, et al. (1999) “Cell-based assays and instrumentation for screening ion-channel targets” Drug Discov Today 4(9): 431-439). These voltage sensitive assays are based on the change in fluorescence resonant energy transfer (FRET) between the membrane-soluble, voltage-sensitive dye, DiSBAC2(3), and a fluorescent phospholipid, CC2-DMPE, which is attached to the outer leaflet of the plasma membrane and acts as a FRET donor. Changes in membrane potential (Vm) cause the negatively charged DiSBAC2(3) to redistribute across the plasma membrane and the amount of energy transfer from CC2-DMPE changes accordingly. The changes in fluorescence emission were monitored using VIPRTM II, which is an integrated liquid handler and fluorescent detector designed to conduct cell-based screens in 96- or 384-well microtiter plates. To identify potentiators of ΔF508-CFTR, a double-addition HTS assay format was developed. During the first addition, a Cl^--free medium with or without test compound was added to each well. […] (in mM) NaCl 160, KCl 4.5, CaCl2 2, MgCl2 1, HEPES 10, pH 7.4 with NaOH. • Chloride-free bath solution: Chloride salts in Bath Solution #1 are substituted with gluconate salts. • CC2-DMPE: Prepared as a 10 mM stock solution in DMSO and stored at -20° C. • DiSBAC2(3): Prepared as a 10 mM stock in DMSO and stored at -20° C. NIH3T3 mouse fibroblasts stably expressing ΔF508-CFTR are used for optical measurements of membrane potential. […] For all optical assays, the cells were seeded at 30,000/well in 384-well matrigel-coated plates and cultured for 2 hrs at 37° C. before culturing at 27° C. for 24 hrs. for the potentiator assay.

T1 sequence (P13569 with tags, fused parts or gaps DEL508-508): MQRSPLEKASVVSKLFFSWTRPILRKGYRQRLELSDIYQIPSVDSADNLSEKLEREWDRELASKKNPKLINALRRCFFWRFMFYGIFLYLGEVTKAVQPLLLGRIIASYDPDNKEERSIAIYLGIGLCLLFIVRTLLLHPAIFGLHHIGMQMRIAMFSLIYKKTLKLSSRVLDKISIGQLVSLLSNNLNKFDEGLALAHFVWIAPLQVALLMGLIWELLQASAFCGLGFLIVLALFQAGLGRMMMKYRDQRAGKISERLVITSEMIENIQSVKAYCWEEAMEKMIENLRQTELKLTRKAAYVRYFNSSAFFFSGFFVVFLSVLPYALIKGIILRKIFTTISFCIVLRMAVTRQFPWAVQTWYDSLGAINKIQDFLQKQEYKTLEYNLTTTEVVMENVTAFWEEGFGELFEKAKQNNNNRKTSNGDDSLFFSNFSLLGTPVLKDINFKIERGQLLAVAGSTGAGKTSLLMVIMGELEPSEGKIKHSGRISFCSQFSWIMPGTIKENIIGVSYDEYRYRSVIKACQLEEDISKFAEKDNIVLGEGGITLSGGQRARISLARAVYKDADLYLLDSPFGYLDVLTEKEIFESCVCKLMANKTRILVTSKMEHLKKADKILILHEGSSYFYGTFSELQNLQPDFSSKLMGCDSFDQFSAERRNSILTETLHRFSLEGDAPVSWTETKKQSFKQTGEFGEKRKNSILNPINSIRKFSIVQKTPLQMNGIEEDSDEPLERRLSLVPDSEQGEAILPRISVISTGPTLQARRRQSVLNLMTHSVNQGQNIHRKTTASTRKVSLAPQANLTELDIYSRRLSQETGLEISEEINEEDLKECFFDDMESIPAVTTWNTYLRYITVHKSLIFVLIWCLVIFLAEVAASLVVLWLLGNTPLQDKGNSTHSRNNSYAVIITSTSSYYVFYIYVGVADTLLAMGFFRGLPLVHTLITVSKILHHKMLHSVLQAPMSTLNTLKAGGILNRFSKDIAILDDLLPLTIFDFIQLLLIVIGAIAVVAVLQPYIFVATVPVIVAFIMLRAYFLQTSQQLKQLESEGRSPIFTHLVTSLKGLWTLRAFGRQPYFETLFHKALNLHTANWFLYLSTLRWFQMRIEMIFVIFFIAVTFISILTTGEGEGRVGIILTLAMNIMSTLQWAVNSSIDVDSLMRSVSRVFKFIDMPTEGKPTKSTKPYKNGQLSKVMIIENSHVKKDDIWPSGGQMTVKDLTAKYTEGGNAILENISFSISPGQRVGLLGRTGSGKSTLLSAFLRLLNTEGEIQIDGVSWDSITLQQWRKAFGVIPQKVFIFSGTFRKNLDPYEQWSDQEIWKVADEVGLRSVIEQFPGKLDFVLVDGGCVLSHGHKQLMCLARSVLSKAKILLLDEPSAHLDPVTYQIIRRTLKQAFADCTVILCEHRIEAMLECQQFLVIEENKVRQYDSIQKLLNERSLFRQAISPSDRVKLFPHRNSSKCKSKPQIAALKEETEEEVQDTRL

Row | Emax | EC50 | SMILES
1 | 25 to 100% | – | O=C(Nc1ccc2c(c1)CCCC2)c1c[nH]c2ccccc2c1=O [Compound 375, 1,4-dihydro-N-(1,2,3,4-tetrahydronaphthalen-6-yl)-4-oxoquinoline-3-carboxamide]
2 | 25 to 100% | – | CC1(c2cc(F)c(NC(=O)c3c[nH]c4ccc(F)cc4c3=O)cc2O)CCCCC1 [Compound 218, 6-fluoro-N-[2-fluoro-5-hydroxy-4-(1-methylcyclohexyl)-phenyl]-4-oxo-1H-quinoline-3-carboxamide]
3 | 25 to 100% | – | O=C(Nc1ccc(N2CCC(CO)CC2)cc1C(F)(F)F)c1c[nH]c2ccccc2c1=O [Compound 668, N-[4-[4-(hydroxymethyl)-1-piperidyl]-2-(trifluoromethyl)phenyl]-4-oxo-1H-quinoline-3-carboxamide]
4 | 25 to 100% | – | O=C(Nc1ccc2ccn(Cc3ccccc3)c2c1)c1c[nH]c2ccccc2c1=O [Compound 203, N-(1-benzyl-1H-indol-6-yl)-4-oxo-1H-quinoline-3-carboxamide]
5 | 25 to 100% | – | COc1cc(NC(=O)c2c[nH]c3ccc(F)cc3c2=O)cc(C(F)(F)F)c1 [Compound 666, 6-fluoro-N-[3-methoxy-5-(trifluoromethyl)phenyl]-4-oxo-1H-quinoline-3-carboxamide]
6 | 25 to 100% | – | C[C@H]1CCCN1c1ccc(NC(=O)c2c[nH]c3ccccc3c2=O)c(C(F)(F)F)c1 [Compound 618, (S)-N-(4-(2-methylpyrrolidin-1-yl)-2-(trifluoromethyl)phenyl)-4-oxo-1,4-dihydroquinoline-3-carboxamide]
7 | 25 to 100% | – | CC(C)(C)c1cc(C(C)(C)C)c(NC(=O)c2c[nH]c3ccc(S(=O)(=O)N4CCCC4)cc3c2=O)cc1O [Compound 255, N-(5-hydroxy-2,4-ditert-butyl-phenyl)-4-oxo-6-pyrrolidin-1-ylsulfonyl-1H-quinoline-3-carboxamide]
8 | 25 to 100% | – | O=C(Nc1ccc(S(=O)(=O)N2CCOCC2)cc1)c1c[nH]c2ccccc2c1=O [Compound 276, N-(4-morpholinosulfonylphenyl)-4-oxo-1H-quinoline-3-carboxamide]
9 | 25 to 100% | < 10 µM | N#CCc1ccc(-c2ccccc2NC(=O)c2c[nH]c3ccccc3c2=O)cc1 [Compound 333, N-[2-[4-(cyanomethyl)phenyl]phenyl]-4-oxo-1H-quinoline-3-carboxamide]
10 | 25 to 100% | – | CC(C)c1cccc(C(C)C)c1NC(=O)c1c[nH]c2ccccc2c1=O [Compound 466, N-(2,6-diisopropylphenyl)-4-oxo-1H-quinoline-3-carboxamide]
11 | 25 to 100% | – | O=C(Nc1ccccc1-c1ccc(Cl)cc1)c1c[nH]c2ccccc2c1=O [Compound 424, N-[2-(4-chlorophenyl)phenyl]-4-oxo-1H-quinoline-3-carboxamide]
12 | 25 to 100% | – | CC(C)(CO)c1ccc(NC(=O)c2c[nH]c3ccccc3c2=O)cc1 [Compound 5, N-[4-(2-hydroxy-1,1-dimethyl-ethyl)phenyl]-4-oxo-1H-quinoline-3-carboxamide]
13 | 25 to 100% | – | COC(=O)Oc1c(NC(=O)c2c[nH]c3ccccc3c2=O)cc(F)cc1C(C)(C)C [Compound 288, N-(5-fluoro-2-methoxycarbonyloxy-3-tert-butyl-phenyl)-4-oxo-1H-quinoline-3-carboxamide]
14 | 25 to 100% | – | O=C(Nc1cc2[nH]ccc2cc1Cl)c1c[nH]c2ccccc2c1=O [Compound 32, N-(5-chloro-1H-indol-6-yl)-4-oxo-1H-quinoline-3-carboxamide]
15 | 25 to 100% | – | CC(C)(C)c1cc(F)c(NC(=O)c2c[nH]c3c(C#N)cccc3c2=O)cc1O [Compound 519, 8-cyano-N-(2-fluoro-5-hydroxy-4-tert-butyl-phenyl)-4-oxo-1H-quinoline-3-carboxamide]
16 | 25 to 100% | – | Cc1ccc(NC(=O)c2c[nH]c3ccccc3c2=O)cc1C [Compound 246, N-(3,4-dimethylphenyl)-4-oxo-1H-quinoline-3-carboxamide]
17 | 25 to 100% | – | CC(C)(C)c1cccc(NC(=O)c2c[nH]c3ccccc3c2=O)c1 [Compound 602, 4-oxo-N-(3-tert-butylphenyl)-1H-quinoline-3-carboxamide]
18 | 25 to 100% | – | CC(C)c1ccc(NC(=O)c2c[nH]c3ccccc3c2=O)cc1O [Compound 575, N-(3-hydroxy-4-isopropyl-phenyl)-4-oxo-1H-quinoline-3-carboxamide]

Row | Emax | EC50 | SMILES
19 | 25 to 100% | – | Cc1cc(C2C3CC4CC(C3)CC2C4)c(O)cc1NC(=O)c1c[nH]c2ccccc2c1=O (centres unmarked) [Compound 208, N-[4-(2-adamantyl)-5-hydroxy-2-methyl-phenyl]-4-oxo-1H-quinoline-3-carboxamide]
20 | > 100% | < 10 µM | O=C(Nc1ccccc1-c1cccc(F)c1)c1c[nH]c2ccccc2c1=O [Compound 277, N-[2-(3-fluorophenyl)phenyl]-4-oxo-1H-quinoline-3-carboxamide]
21 | 25 to 100% | – | CC(C)(C)c1cc(C(C)(C)C)c(NC(=O)c2c[nH]c3c(F)cccc3c2=O)cc1O [Compound 687, 8-fluoro-N-(5-hydroxy-2,4-ditert-butyl-phenyl)-4-oxo-1H-quinoline-3-carboxamide]
22 | 25 to 100% | – | CCOc1ccc2[nH]cc(C(=O)Nc3cc4[nH]ccc4cc3C(C)(C)C)c(=O)c2c1 [Compound 681, 6-ethoxy-4-oxo-N-(5-tert-butyl-1H-indol-6-yl)-1H-quinoline-3-carboxamide]
23 | 25 to 100% | – | N#Cc1ccc(-c2ccccc2NC(=O)c2c[nH]c3ccccc3c2=O)s1 [Compound 93, N-[2-(5-cyano-2-thienyl)phenyl]-4-oxo-1H-quinoline-3-carboxamide]
24 | < 25% | – | Cc1ccc2c(c1)c(=O)c(C(=O)Nc1ccccc1-c1ccccc1)cn2C [Compound 128, 1,6-dimethyl-4-oxo-N-(2-phenylphenyl)-1H-quinoline-3-carboxamide]
25 | < 25% | – | O=C(Nc1ccc(C(F)(F)F)cn1)c1c[nH]c2ccccc2c1=O [Compound 74, 4-oxo-N-[5-(trifluoromethyl)-2-pyridyl]-1H-quinoline-3-carboxamide]
26 | < 25% | – | CCOc1cccc2c(=O)c(C(=O)Nc3cc(O)c(C(C)(C)C)cc3C(C)(C)C)c[nH]c12 [Compound 616, 8-ethoxy-N-(5-hydroxy-2,4-ditert-butyl-phenyl)-4-oxo-1H-quinoline-3-carboxamide]
27 | 25 to 100% | – | CCCc1ccc(NC(=O)c2c[nH]c3ccccc3c2=O)cc1NC(=O)OC [Compound 221, [5-[(4-oxo-1H-quinolin-3-yl)carbonylamino]-2-propyl-phenyl]aminoformic acid methyl ester]
28 | < 25% | – | CCc1cccc2c(=O)c(C(=O)Nc3ccc(C(C)C)cc3C(F)(F)F)c[nH]c12 [Compound 682, 8-ethyl-N-[4-isopropyl-2-(trifluoromethyl)phenyl]-4-oxo-1H-quinoline-3-carboxamide]
29 | 25 to 100% | – | CCOc1ccccc1-c1ccc(NC(=O)OC(C)(C)C)cc1NC(=O)c1c[nH]c2ccccc2c1=O [Compound 114, [4-(2-ethoxyphenyl)-3-[(4-oxo-1H-quinolin-3-yl)carbonylamino]phenyl]aminoformic acid tert-butyl ester]
30 | 25 to 100% | – | CC(C)c1ccc(NC(=O)OC(C)(C)C)cc1NC(=O)c1c[nH]c2ccccc2c1=O [Compound 60, [4-isopropyl-3-[(4-oxo-1H-quinolin-3-yl)carbonylamino]phenyl]aminoformic acid tert-butyl ester]
31 | 25 to 100% | – | CCOc1cccc(-c2cc(C(C)(C)C)c(O)cc2NC(=O)c2c[nH]c3ccccc3c2=O)c1 [Compound 43, N-[2-(3-ethoxyphenyl)-5-hydroxy-4-tert-butyl-phenyl]-4-oxo-1H-quinoline-3-carboxamide]
32 | 25 to 100% | 10 to 25 µM | CS(=O)(=O)Nc1cccc(NC(=O)c2c[nH]c3ccccc3c2=O)c1 [Compound 214, N-(3-methylsulfonylaminophenyl)-4-oxo-1H-quinoline-3-carboxamide]
33 | 25 to 100% | – | CC(=O)n1ccc2ccc(NC(=O)c3c[nH]c4ccccc4c3=O)cc21 [Compound 187, N-(1-acetyl-1H-indol-6-yl)-4-oxo-1H-quinoline-3-carboxamide]
34 | 25 to 100% | – | O=C(Nc1cc(O)c(C(F)(F)F)cc1F)c1c[nH]c2ccccc2c1=O [Compound 501, N-[2-fluoro-5-hydroxy-4-(trifluoromethyl)phenyl]-4-oxo-1H-quinoline-3-carboxamide]
35 | < 25% | – | CC(CO)(CO)c1ccc(NC(=O)c2c[nH]c3ccc(F)cc3c2=O)cc1 [Compound 627, 6-fluoro-N-[4-[2-hydroxy-1-(hydroxymethyl)-1-methyl-ethyl]phenyl]-4-oxo-1H-quinoline-3-carboxamide]
